Assay results: ChEMBL document CHEMBL5584236, “Development of novel bisphenol derivatives with a membrane-targeting mechanism as potent gram-positive antibacterial agents” (Eur J Med Chem, 2024)

Key:
Staphylococcus aureus [1] = assay: Antibacterial activity against methicillin-resistant Staphylococcus aureus N315 assessed as reduction in microbial growth incubated for 22 to 24 hrs by CLSI based broth microdilution method; type: functional; conditions: time 22-24 hrs
Escherichia coli = assay: Antibacterial activity against Escherichia coli ATCC25922 assessed as reduction in microbial growth incubated for 22 to 24 hrs by CLSI based broth microdilution method; type: functional; conditions: time 22-24 hrs
Staphylococcus aureus [2] = assay: Antibacterial activity against methicillin-resistant Staphylococcus aureus NCTC10442 assessed as reduction in microbial growth incubated for 22 to 24 hrs by CLSI based broth microdilution method; type: functional; conditions: time 22-24 hrs
[3] = Hemolytic activity against rabbit RBC incubated for 1 hr by multimode plate reader; type: toxicity, cell-based, Oryctolagus cuniculus, Erythrocyte; conditions: rabbit red blood cells (erythrocytes)
Staphylococcus aureus [4] = assay: Antibacterial activity against Staphylococcus aureus ATCC29213 assessed as reduction in microbial growth incubated for 22 to 24 hrs by CLSI based broth microdilution method; type: functional; conditions: time 22-24 hrs
Staphylococcus aureus [5] = assay: Drug resistance, ratio of MIC for Staphylococcus aureus ATCC29213 after 13 passages to MIC for Staphylococcus aureus ATCC29213 after initial exposure; type: functional
Staphylococcus aureus [6] = assay: Antibacterial activity against Staphylococcus aureus ATCC29213 infected in C57BL6 mouse corneal infection model assessed as log reduction in CFU at 5 % administered topically on corneas for four times in 3 days by MHA plate counting method; type: functional; conditions: time 3 day
Staphylococcus aureus [7] = assay: Antibacterial activity against Staphylococcus aureus ATCC25923 assessed as reduction in microbial growth incubated for 22 to 24 hrs by CLSI based broth microdilution method; type: functional; conditions: time 22-24 hrs
Klebsiella pneumoniae = assay: Antibacterial activity against Klebsiella pneumoniae ATCC10031 assessed as reduction in microbial growth incubated for 22 to 24 hrs by CLSI based broth microdilution method; type: functional; conditions: time 22-24 hrs
[8] = test system: Staphylococcus epidermidis; assay: Antibacterial activity against Staphylococcus epidermidis ATCC12228 assessed as reduction in microbial growth incubated for 22 to 24 hrs by CLSI based broth microdilution method; type: functional; conditions: time 22-24 hrs
Acinetobacter baumannii [9] = assay: Antibacterial activity against Acinetobacter baumannii ATCC17978 assessed as reduction in microbial growth incubated for 22 to 24 hrs by CLSI based broth microdilution method; type: functional; conditions: time 22-24 hrs
Acinetobacter baumannii [10] = assay: Antibacterial activity against Acinetobacter baumannii R28889 assessed as reduction in microbial growth incubated for 22 to 24 hrs by CLSI based broth microdilution method; type: functional; conditions: time 22-24 hrs
[11] = test system: Staphylococcus epidermidis; assay: Antibacterial activity against Staphylococcus epidermidis CMCC26069 assessed as reduction in microbial growth incubated for 22 to 24 hrs by CLSI based broth microdilution method; type: functional; conditions: time 22-24 hrs

| SMILES | MIC (Staphylococcus aureus [1]) [µg/mL] | MIC (Escherichia coli) [µg/mL] | MIC (Staphylococcus aureus [2]) [µg/mL] | HC50 at 1 h [3] [µg/mL] | MIC (Staphylococcus aureus [4]) [µg/mL] | Ratio (Staphylococcus aureus [5]) | log(activity) (Staphylococcus aureus [6]) | MIC (Staphylococcus aureus [7]) [µg/mL] | MIC (Klebsiella pneumoniae) [µg/mL] | MIC [8] [µg/mL] | MIC (Acinetobacter baumannii [9]) [µg/mL] | MIC (Acinetobacter baumannii [10]) [µg/mL] | MIC [11] [µg/mL] |
| --- | --- | --- | --- | --- | --- | --- | --- | --- | --- | --- | --- | --- | --- |
| C=CCOc1ccc(S(=O)(=O)c2ccc(OCC(=O)OCC)cc2)cc1 | > 50 | > 50 | > 50 | > 200 | > 50 | – | – | – | – | – | – | – | – |
| CCn1cc(C(=O)O)c(=O)c2cc(F)c(N3CCNCC3)cc21 [NORFLOXACIN] | – | – | – | – | – | 4 | – | – | – | – | – | – | – |
| CC(C)=CCOc1ccc(S(=O)(=O)c2ccc(OCCCNC(=N)N)cc2)cc1 | 3.12 | 50 | 3.12 | > 200 | 6.25 | – | – | – | – | – | – | – | – |
| COC(=O)[C@H](CCCNC(=N)N)NC(=O)[C@H](CCCNC(=N)N)NC(=O)COc1ccc(S(=O)(=O)c2ccc(OCC=C(C)C)cc2)cc1 | 6.25 | > 50 | 6.25 | > 200 | 25 | – | – | – | – | – | – | – | – |
| CN[C@H](CC(C)C)C(=O)N[C@H]1C(=O)N[C@@H](CC(N)=O)C(=O)N[C@H]2C(=O)N[C@H]3C(=O)N[C@H](C(=O)N[C@H](C(=O)O)c4cc(O)cc(O)c4-c4cc3ccc4O)[C@H](O)c3ccc(c(Cl)c3)Oc3cc2cc(c3O[C@@H]2O[C@H](CO)[C@@H](O)[C@H](O)[C@H]2O[C@H]2C[C@](C)(N)[C@H](O)[C@H](C)O2)Oc2ccc(cc2Cl)[C@H]1O [VANCOMYCIN] | – | – | – | – | 0.78 | – | 4.8 | 0.78 | – | – | – | – | – |
| COC(=O)[C@H](CCCNC(=N)N)NC(=O)[C@H](CCCNC(=N)N)NC(=O)[C@H](CCCNC(=N)N)NC(=O)COc1ccc(S(=O)(=O)c2ccc(OCC=C(C)C)cc2)cc1 | 6.25 | > 50 | 6.25 | > 200 | 12.5 | – | – | – | – | – | – | – | – |
| CC(C)=CCOc1ccc(S(=O)(=O)c2ccc(OCCCCN)cc2)cc1 | 6.25 | > 50 | 6.25 | > 200 | 25 | – | – | – | – | – | – | – | – |
| CCOC(=O)COc1ccc(S(=O)(=O)c2ccc(OCC=C(C)C)cc2)cc1 | > 50 | > 50 | > 50 | > 200 | > 50 | – | – | – | – | – | – | – | – |
| CC(C)=CCOc1ccc(S(=O)(=O)c2ccc(OCCCCNC(=N)N)cc2)cc1 | 1.56 | 12.5 | 3.12 | > 200 | 3.12 | – | – | 3.12 | 6.25 | 1.56 | 6.25 | 6.25 | 1.56 |
| COC(=O)[C@H](CCCNC(=N)N)NC(=O)COc1ccc(S(=O)(=O)c2ccc(OCC=C(C)C)cc2)cc1 | 12.5 | > 50 | 12.5 | 200 | 25 | – | – | – | – | – | – | – | – |
| COC(=O)[C@H](CCCNC(=N)N)NC(=O)COc1ccc(S(=O)(=O)c2ccc(OC(C)C)cc2)cc1 | > 50 | > 50 | > 50 | > 200 | > 50 | – | – | – | – | – | – | – | – |
| CCNCCCCOc1ccc(S(=O)(=O)c2ccc(OCC=C(C)C)cc2)cc1 | 25 | > 50 | 25 | 70.8 | 25 | – | – | – | – | – | – | – | – |
| CC[C@H](C)[C@H](NC(=O)CN)C(=O)NCC(=O)N[C@@H](C)C(=O)N[C@H](C(=O)N[C@@H](CC(C)C)C(=O)N[C@@H](CCCCN)C(=O)N[C@H](C(=O)N[C@@H](CC(C)C)C(=O)N[C@H](C(=O)N[C@H](C(=O)NCC(=O)N[C@@H](CC(C)C)C(=O)N1CCC[C@H]1C(=O)N[C@@H](C)C(=O)N[C@@H](CC(C)C)C(=O)N[C@H](C(=O)N[C@@H](CO)C(=O)N[C@@H](Cc1c[nH]c2ccccc12)C(=O)N[C@H](C(=O)N[C@@H](CCCCN)C(=O)N[C@@H](CCCNC(=N)N)C(=O)N[C@@H](CCCCN)C(=O)N[C@@H](CCCNC(=N)N)C(=O)N[C@@H](CCC(N)=O)C(=O)N[C@@H](CCC(N)=O)C(N)=O)[C@@H](C)CC)[C@@H](C)CC)[C@@H](C)O)[C@@H](C)O)C(C)C)C(C)C [MELITTIN] | – | – | – | – | – | – | – | – | 6.25 | – | 3.12 | 3.12 | – |
| C=CCCCCCOc1ccc(S(=O)(=O)c2ccc(OCCCCNC(=N)N)cc2)cc1 | 0.78 | > 50 | 0.78 | > 200 | 1.56 | – | – | – | – | – | – | – | – |
| C=CCOc1ccc(S(=O)(=O)c2ccc(OCC(=O)N[C@@H](CCCNC(=N)N)C(=O)OC)cc2)cc1 | > 50 | > 50 | > 50 | > 200 | > 50 | – | – | – | – | – | – | – | – |
| O=S(=O)(c1ccc(O)cc1)c1ccc(O)cc1 | > 50 | > 100 | > 50 | > 200 | > 50 | – | – | – | – | – | – | – | – |
| CC(C)Oc1ccc(S(=O)(=O)c2ccc(OCCCCNC(=N)N)cc2)cc1 | 6.25 | 50 | 6.25 | > 200 | 12.5 | – | – | – | – | – | – | – | – |
| CC(C)=CCOc1ccc(S(=O)(=O)c2ccc(OCCOCCNC(=N)N)cc2)cc1 | 3.12 | 50 | 3.12 | > 200 | 6.25 | – | – | – | – | – | – | – | – |
| CC(C)=CCC/C(C)=C\COc1ccc(S(=O)(=O)c2ccc(OCCCCNC(=N)N)cc2)cc1 | 0.78 | > 50 | 0.78 | 144 | 1.56 | – | – | – | – | – | – | – | – |
| COC(=O)[C@H](CCCNC(=N)N)NC(=O)[C@H](CCCNC(=N)N)NC(=O)[C@H](CCCNC(=N)N)NC(=O)COc1ccc(S(=O)(=O)c2ccc(OC/C=C(/C)CCC=C(C)C)cc2)cc1 | 0.78 | 6.25 | 0.78 | 165 | 0.78 | – | – | – | – | – | – | – | – |
| COC(=O)[C@H](CCCNC(=N)N)NC(=O)COc1ccc(S(=O)(=O)c2ccc(OC/C=C(/C)CCC=C(C)C)cc2)cc1 | 50 | > 50 | 50 | > 200 | > 50 | – | – | – | – | – | – | – | – |
| C=CCOc1ccc(S(=O)(=O)c2ccc(OCCCCNC(=N)N)cc2)cc1 | 6.25 | 50 | 6.25 | > 200 | 6.25 | – | – | – | – | – | – | – | – |
| CCOC(=O)COc1ccc(S(=O)(=O)c2ccc(OC/C=C(/C)CCC=C(C)C)cc2)cc1 | > 50 | > 50 | > 50 | > 200 | > 50 | – | – | – | – | – | – | – | – |
| COC(=O)[C@H](CCCNC(=N)N)NC(=O)[C@H](CCCNC(=N)N)NC(=O)[C@H](CCCNC(=N)N)NC(=O)COc1ccc(S(=O)(=O)c2ccc(OC(C)C)cc2)cc1 | > 50 | > 50 | > 50 | > 200 | > 50 | – | – | – | – | – | – | – | – |
| CCN(CC)CCCCOc1ccc(S(=O)(=O)c2ccc(OCC=C(C)C)cc2)cc1 | 25 | > 50 | 25 | 69.4 | 50 | – | – | – | – | – | – | – | – |
| CCOC(=O)COc1ccc(S(=O)(=O)c2ccc(OC(C)C)cc2)cc1 | > 50 | > 50 | > 50 | > 200 | > 50 | – | – | – | – | – | – | – | – |
| CC(C)=CCOc1ccc(S(=O)(=O)c2ccc(OCCCCN(C)C)cc2)cc1 | 12.5 | 50 | 12.5 | 67.8 | 25 | – | – | – | – | – | – | – | – |
